Assay results as given in patent US12570666B2, “Furoindazole derivatives” (Bayer Aktiengesellschaft, priority 2019, dated 2026).

Target: T1, human GPR84 receptor (Homo sapiens, UniProt Q9NQS5)
T1 construct: frozen aliquots prepared by acCELLerate; host or cells: CHO-K1
Test: cAMP HTRF assay for identification of cellular GPR84 antagonists
Format: cell-based
Settings: CHO-K1 cells stably expressing human GPR84; Forskolin + agonist 6-OAU (EC80); average or median values
Description: cAMP HTRF® Assay for Identification of Cellular GPR84 Antagonists
By using a Homogenous Time-Resolved Fluorescence (HTRF®) based assay (#62AM5PEJ, Cisbio, Condolet, France) the inhibition of the Gi-coupled GPR84 receptor can be detected. CHO-K1 cells stably expressing human GPR84 receptor (purchased from DiscoveRx, now Eurofins) were used and treated with Forskolin (F6886, Sigma, Germany) to stimulate membrane adenylyl cyclases and thereby unspecific cAMP formation. Activation of the Gi-coupled GPR84 by a natural or small molecule agonist (e.g. 6-n-octyl aminouracile, inhouse) results in inhibition of cellular cAMP formation which can be released again by antagonists to this receptor. Detection and quantification of cellular cAMP levels in this HTRF assay is achieved by interaction between a fluorescent cAMP tracer (cAMP-d2) and an Eu-cryptate labelled anti-cAMP antibody. Following excitation at 337 nm this pairing allows for the generation of a fluorescence resonance energy transfer (FRET) between the partners and results in FRET induced emissions at 665 nm and 620 nm, the latter representing background signal by Eu-cryptate labelled anti-cAMP antibody. Maximal signal is obtained in the absence of any cellular cAMP (no competition for the binding of the tracer to the antibody). Given the combination of the Gi coupling properties of GPR84 and the competitive nature of the detection system agonist treatment should result in an increase in the HTRF signal due to lowered cAMP levels. Any signal decrease in the presence of Forskolin, agonist and compound is indicative of antagonist mediated abrogation of GPR84 signalling.
For the assay, frozen aliquots of CHO-K1 cells expressing hGPR84 (prepared by acCELLerate, Hamburg, Germany) were thawed and a cell suspension (1.67E+06 cells/mL) in assay media (Ham's F12 Nutrient Mix, Thermo Fisher Scientific, Waltham, USA; 5% fetal calf serum, Biomol, Hamburg, Germany) containing cAMP-d2 (dilution 1:20, supplied with the kit #62AM5PEJ, Cisbio, Condolet, France) was prepared. After recovery of cells for 20 minutes at 37° C., 3 μL/well cell suspension including cAMP-d2 were added to a pre-dispensed assay plate (Greiner Bio-One, Kremsmuenster, Austria) containing 50 nl/well test compound in 100% DMSO or 100% DMSO as control. This was followed by a 30 minutes incubation step at room temperature. […] The reaction was stopped by addition of 3 μL/well lysis buffer containing cAMP Eu-Cryptate antibody (dilution 1:20) (both supplied with the kit #62AM5PEJ, Cisbio, Condolet, France). To enable complete lysis, plates were incubated for 60 minutes at room temperature before measurement in an HTRF reader, e.g. a PHERAstar (BMG Labtech, Ortenberg, Germany).
From the fluorescence emissions at 665 nm (FRET) and at 620 nm (background signal of Eu-cryptate) the ratio (emission at 665 nm divided by emission at 620 nm×10000) was calculated and the data were normalized (reaction without test compound, only 100% DMSO=0% inhibition; all other assay components except agonist=100% inhibition). For dose response testing on the same microtiter plate, compounds were tested at 11 different concentrations in the range of 20 μM to 0.07 nM (20 μM, 5.7 μM, 1.6 μM, 0.47 μM, 0.13 μM, 38 nM, 11 nM, 3.1 nM, 0.89 nM, 0.25 and 0.07 nM; dilution series prepared before the assay at the level of the 100-fold conc. stock solutions by serial 1:3.5 dilutions in 100% DMSO) in duplicate values for each concentration. IC50 values were calculated by 4-parameter fitting using a commercial software package (Genedata Screener, Basel, Switzerland).
Examples were tested in selected biological assays one or more times. […]

T1 sequence (Q9NQS5 whole entry): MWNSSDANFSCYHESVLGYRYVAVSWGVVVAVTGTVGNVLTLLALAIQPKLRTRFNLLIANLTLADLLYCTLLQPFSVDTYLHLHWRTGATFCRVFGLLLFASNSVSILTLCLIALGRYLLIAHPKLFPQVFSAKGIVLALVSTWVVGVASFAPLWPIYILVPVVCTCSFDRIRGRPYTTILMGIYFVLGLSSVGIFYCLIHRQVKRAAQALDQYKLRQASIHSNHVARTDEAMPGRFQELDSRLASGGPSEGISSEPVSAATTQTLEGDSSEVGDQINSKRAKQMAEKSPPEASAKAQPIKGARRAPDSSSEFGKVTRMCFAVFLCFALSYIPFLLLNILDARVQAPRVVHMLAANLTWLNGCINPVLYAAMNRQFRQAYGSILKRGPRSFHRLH

SMILES | IC50
Cc1c(C(=O)NCC2CCCO2)oc2c1-c1nn(CC3COc4ncccc4O3)cc1CC2 (single isomer, unassigned) [Example 52-2] | 16 nM
Cc1c(C(=O)NCc2ccon2)oc2c1-c1nn(CC3COc4ncccc4O3)cc1CC2 (single isomer, unassigned) [Example 55-1] | 340 nM
Cc1c(C(=O)NCc2ccon2)oc2c1-c1nn(CC3COc4ncccc4O3)cc1CC2 (single isomer, unassigned) [Example 55-2] | 43 nM
Cc1cccc(Cn2cc3c(n2)-c2c(oc(C(=O)NCC4CCCO4)c2C)CC3)n1 (single isomer, unassigned) [Example 66-1] | 63 nM
Cc1cccc(Cn2cc3c(n2)-c2c(oc(C(=O)NCC4CCCO4)c2C)CC3)n1 (single isomer, unassigned) [Example 66-2] | 660 nM
Cc1c(C(=O)NC[C@H]2CCC3(COC3)O2)oc2c1-c1nn(C[C@H]3COCCO3)cc1C1(CC1)C2 (single isomer, unassigned) [Example 201-1] | 683 nM
Cc1c(C(=O)NC[C@H]2CCC3(COC3)O2)oc2c1-c1nn(C[C@H]3COCCO3)cc1C1(CC1)C2 (single isomer, unassigned) [Example 201-2] | 112 nM
O=C(NC[C@H]1CC(F)(F)CO1)c1oc2c(c1C(F)(F)F)-c1nn(C[C@H]3COCCO3)cc1CC2 (single isomer, unassigned) [Example 222-1, N-{[(2R or 2S)-4,4-difluorooxolan-2-yl]methyl}-2-{[(2S)-1,4-dioxan-2-yl]methyl}-8-(trifluoromethyl)-4,5-dihydro-2H-furo[2,3-g]indazole-7-carboxamide] | 12 nM
O=C(NC[C@H]1CC(F)(F)CO1)c1oc2c(c1C(F)(F)F)-c1nn(C[C@H]3COCCO3)cc1CC2 (single isomer, unassigned) [Example 222-2, N-{[(2S or 2R)-4,4-difluorooxolan-2-yl]methyl}-2-{[(2S)-1,4-dioxan-2-yl]methyl}-8-(trifluoromethyl)-4,5-dihydro-2H-furo[2,3-g]indazole-7-carboxamide] | 54 nM
CC1(C)CC[C@H](CNC(=O)c2oc3c(c2C(F)(F)F)-c2nn(C[C@H]4COCCO4)cc2CC3)O1 (single isomer, unassigned) [Example 223-1, N-{[(2R or 2S)-5,5-dimethyloxolan-2-yl]methyl}-2-{[(2S)-1,4-dioxan-2-yl]methyl}-8-(trifluoromethyl)-4,5-dihydro-2H-furo[2,3-g]indazole-7-carboxamide] | 12 nM
CC1(C)CC[C@H](CNC(=O)c2oc3c(c2C(F)(F)F)-c2nn(C[C@H]4COCCO4)cc2CC3)O1 (single isomer, unassigned) [Example 223-2, N-{[(2S or 2R)-5,5-dimethyloxolan-2-yl]methyl}-2-{[(2S)-1,4-dioxan-2-yl]methyl}-8-(trifluoromethyl)-4,5-dihydro-2H-furo[2,3-g]indazole-7-carboxamide] | 51 nM
CC1CCC(CNC(=O)c2oc3c(c2C(F)(F)F)-c2nn(CC4COCCO4)cc2CC3)O1 (single isomer, unassigned) [Example 224-1, 2-{[(2S)-1,4-dioxan-2-yl]methyl}-N-{[(2R or 2S,5R or 5S)-5-methyloxolan-2-yl]methyl}-8-(trifluoromethyl)-4,5-dihydro-2H-furo[2,3-g]indazole-7-carboxamide] | 16 nM
CC1CCC(CNC(=O)c2oc3c(c2C(F)(F)F)-c2nn(CC4COCCO4)cc2CC3)O1 (single isomer, unassigned) [Example 224-2, 2-{[(2S)-1,4-dioxan-2-yl]methyl}-N-{[(2S or 2R,5S or 5R)-5-methyloxolan-2-yl]methyl}-8-(trifluoromethyl)-4,5-dihydro-2H-furo[2,3-g]indazole-7-carboxamide] | 154 nM
CC1Cc2oc(C(=O)NC[C@@H]3COCCO3)c(C(F)(F)F)c2-c2nn(C[C@H]3COCCO3)cc21 (single isomer, unassigned) [Example 254-1, (4R or 4S)-N-{[(2R)-1,4-dioxan-2-yl]methyl}-2-{[(2S)-1,4-dioxan-2-yl]methyl}-4-methyl-8-(trifluoromethyl)-4,5-dihydro-2H-furo[2,3-g]indazole-7-carboxamide] | 10 nM
CC1Cc2oc(C(=O)NC[C@@H]3COCCO3)c(C(F)(F)F)c2-c2nn(C[C@H]3COCCO3)cc21 (single isomer, unassigned) [Example 254-2, (4R or 4S)-N-{[(2R)-1,4-dioxan-2-yl]methyl}-2-{[(2S)-1,4-dioxan-2-yl]methyl}-4-methyl-8-(trifluoromethyl)-4,5-dihydro-2H-furo[2,3-g]indazole-7-carboxamide] | 46 nM
C[C@@H]1Cc2oc(C(=O)NC[C@@H]3CCCO3)c(C(F)(F)F)c2-c2nn(C[C@H]3COCCO3)cc21 (single isomer, unassigned) [Example 255-1, (4R or 4S)-2-{[(2S)-1,4-dioxan-2-yl]methyl}-4-methyl-N-{[(2S)-oxolan-2-yl]methyl}-8-(trifluoromethyl)-4,5-dihydro-2H-furo[2,3-g]indazole-7-carboxamide] | 3 nM
C[C@@H]1Cc2oc(C(=O)NC[C@@H]3CCCO3)c(C(F)(F)F)c2-c2nn(C[C@H]3COCCO3)cc21 (single isomer, unassigned) [Example 255-2, (4R or 4S)-2-{[(2S)-1,4-dioxan-2-yl]methyl}-4-methyl-N-{[(2S)-oxolan-2-yl]methyl}-8-(trifluoromethyl)-4,5-dihydro-2H-furo[2,3-g]indazole-7-carboxamide] | 16 nM
C[C@@H]1Cc2oc(C(=O)NCc3ncco3)c(C(F)(F)F)c2-c2nn(C[C@H]3COCCO3)cc21 (single isomer, unassigned) [Example 256, (4R or 4S)-2-{[(2S)-1,4-dioxan-2-yl]methyl}-4-methyl-N-[(1,3-oxazol-2-yl)methyl]-8-(trifluoromethyl)-4,5-dihydro-2H-furo[2,3-g]indazole-7-carboxamide] | 14 nM
C[C@@H]1Cc2oc(C(=O)NCc3ccn(C)n3)c(C(F)(F)F)c2-c2nn(C[C@H]3COCCO3)cc21 (single isomer, unassigned) [Example 257, (4R or 4S)-2-{[(2S)-1,4-dioxan-2-yl]methyl}-4-methyl-N-[(1-methyl-1H-pyrazol-3-yl)methyl]-8-(trifluoromethyl)-4,5-dihydro-2H-furo[2,3-g]indazole-7-carboxamide] | 25 nM
Cc1cnc(CNC(=O)c2oc3c(c2C(F)(F)F)-c2nn(C[C@H]4COCCO4)cc2[C@H](C)C3)cn1 (single isomer, unassigned) [Example 258, (4R or 4S)-2-{[(2S)-1,4-dioxan-2-yl]methyl}-4-methyl-N-[(5-methylpyrazin-2-yl)methyl]-8-(trifluoromethyl)-4,5-dihydro-2H-furo[2,3-g]indazole-7-carboxamide] | 5 nM
C[C@@H]1Cc2oc(C(=O)NCc3nccs3)c(C(F)(F)F)c2-c2nn(C[C@H]3COCCO3)cc21 (single isomer, unassigned) [Example 259, (4R or 4S)-2-{[(2S)-1,4-dioxan-2-yl]methyl}-4-methyl-N-[(1,3-thiazol-2-yl)methyl]-8-(trifluoromethyl)-4,5-dihydro-2H-furo[2,3-g]indazole-7-carboxamide] | 5 nM
C[C@@H]1Cc2oc(C(=O)NCc3cnccn3)c(C(F)(F)F)c2-c2nn(C[C@H]3COCCO3)cc21 (single isomer, unassigned) [Example 260, (4R or 4S)-2-{[(2S)-1,4-dioxan-2-yl]methyl}-4-methyl-N-[(pyrazin-2-yl)methyl]-8-(trifluoromethyl)-4,5-dihydro-2H-furo[2,3-g]indazole-7-carboxamide] | 24 nM
